Tests used:
[1] = test system: HGS2 cells; assay: cell viability by colony formation assay, HGS2; format: cell-based, mouse; conditions: HGS2, 10 μM, 8 days
Procedure: FIG. 6A-FIG. 6K show KDM5A inhibition promotes anti-tumor immune response in vivo. (FIG. 6A) Expression of H3K4me3, Kdm5a and a loading control b-actin in an independent second doxycycline-inducible shKdm5a ID8 clone treated with or without 2 μg/mL of doxycycline. (FIG. 6B) Same as FIG. 6A, but doxycycline-inducible shKdm5a ID8 cells were plated into 24 well plates and treated with 2 μg/mL of doxycycline the same day. Cells were incubated for 8 days. Relative cell viability was determined by colony formation assay. (FIG. 6C) Expression of H3K4me3, Kdm5a and a loading control b-actin in HGS2 cells treated 10 μM of CPI-455 or vehicle controls for 72 hours. […] Relative cell viability was determined by colony formation assay. (FIG. 6E-FIG. 6F) Bioluminescence signal was measured by IVIS system in indicated animal groups in the immunocompetent C57BL/6 mouse model once a week (FIG. 6E) and the survival of the indicated groups was determined by Kaplan-Meier survival curves (FIG. 6F) (n=5 mice per group). […] Ascites volumes produced from the indicated groups were quantified (FIG. 6H). n=5 mice per group. […] (FIG. 6J-FIG. 6K) Bioluminescence signal was measured by IVIS system in indicated animal groups in the immunocompromised NSG mouse model once a week (FIG. 6J), or examined for Kaplan-Meier survival curves for the indicated groups (FIG. 6K). […]

[2] = test system: H2-K1 in ID8 cells; assay: H2-K1 expression by RT-qPCR; format: cell-based, mouse; conditions: ID8, with IFNγ treatment
From the text: FIG. 4A-FIG. 4M show KDM5A regulates antigen processing and presentation pathway. (FIG. 4A) Experimental strategy used to identify Kdm5a direct target genes. […] (FIG. 4B) CUT&RUN tracks of the newly identified Kdm5a target gene H2-K1 for Kdm5a and H3K4me3 in ID8 cells. (FIG. 4C) Expression of H2-K1 in doxycycline-inducible shKdm5a ID8 cells, Kdm5a inhibitor CPI-455, or Kdm5a knockout cells with or without IFNγ stimulation determined by RT-qPCR. (FIG. 4D) Cell surface expression of H2-K1 in control and Kdm5a knockout ID8 cells with or without IFNy stimulation was determined by FACS analysis. (FIG. 4E) Quantification of FIG. 4D. (FIG. 4F) Cell surface expression of H2-K1 in control and doxycyclineinducible Kdm5a-knockdown ID8 cells with or without IFNγ stimulation was determined by FACS analysis. (FIG. 4G) Quantification of FIG. 4F. (FIG. 4H) Cell surface expression of H2-K1 in D8 cells treated with vehicle or CPI-455 with or without IFNγ stimulation was determined by FACS analysis. (FIG. 4I) Quantification of FIG. 4H; An isotype matched IgG was used as a negative control for all the FACS analysis. […] Data represent mean±SEM of three biological repeats; P-value was calculated by using a two-tailed Student t test except in FIG. 4L by using Pearson r analysis test and FIG. 4M by using Fisher's exact test. […]

Substance: CPI-455
- cell viability [1]: did not affect cell viability
- expression of H2-K1 [2]: upregulated

— patent publication US20240139197A1, “INHIBITION OF KDM5A FOR PROMOTING ANTIGEN PRESENTATION, INCREASING CD8+ T CELL INFILTRATION AND BOOSTING ANTI-TUMOR IMMUNE RESPONSE” (The Wistar Institute of Anatomy and Biology, priority 2022, published 2024)
